Reference: patent US5565447A, “Indole derivatives” (Laboratorios Almirall S.A., priority 1992, dated 1996)
Where two headings read alike, the source gives them in different places.

What was measured:
5HT1A receptors = molecular target: T1, 5HT1A receptors (Rattus norvegicus, UniProt P19327); assay: Binding to 5HT1A receptors (3H-8-OH-DPAT displacement, rat hippocampus membranes)
T1 sequence (P19327 1-422): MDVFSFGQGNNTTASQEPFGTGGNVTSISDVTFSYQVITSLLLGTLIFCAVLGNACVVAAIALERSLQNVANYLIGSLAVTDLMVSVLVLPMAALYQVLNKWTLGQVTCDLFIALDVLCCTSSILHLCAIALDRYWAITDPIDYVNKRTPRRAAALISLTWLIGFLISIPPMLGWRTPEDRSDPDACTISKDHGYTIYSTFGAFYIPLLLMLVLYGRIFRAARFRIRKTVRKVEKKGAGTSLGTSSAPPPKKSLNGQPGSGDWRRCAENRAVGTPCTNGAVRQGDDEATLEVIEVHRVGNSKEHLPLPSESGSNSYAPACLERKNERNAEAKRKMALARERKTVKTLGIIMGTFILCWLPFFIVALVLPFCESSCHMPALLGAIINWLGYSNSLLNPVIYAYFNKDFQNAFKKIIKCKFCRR
Procedure: Binding to 5HT1A receptors
Assays were performed essentially as described by Gozlan et al (1983). Varying amounts of tested drugs were added to 1 mL final volume reaction mixtures that included 100 μg of rat hippocampus membrane protein, 0.5 nM ^3 H-8-OH-DPAT, 4 mM CaCl2, 0.1% ascorbic acid, 10 μM pargyline and 50 mM Tris HCl buffer, pH 7.4. After incubation at 25° C. for 30 minutes, samples were filtered under reduced pressure using glass fibre filters. The filters were washed with ice-cold buffer and dried. Non-specific binding was defined as that obtained in the presence of 10 μM 5HT. Radioactivity was quantified by scintillation counting and data was handled as described for the 5HT1D binding assay. (Gozlan H.; El Mestikawy S.; Pichat L.; Glowinski J. and Hamon M. (1983). Identification of presynaptic serotonin autoreceptors using a new ligand:^3 H-PAT. Nature 305, 140-142).

5HT1D receptors [1] = molecular target: T2, 5HT1D receptors (Bos taurus, UniProt F1MGM3); assay: Binding to 5HT1D receptors (125I-GTI displacement, calf caudate nucleus membranes)
T2 construct: calf caudate nucleus membrane protein; from tissue; host or cells: calf caudate nucleus membranes
T2 sequence (F1MGM3 1-403): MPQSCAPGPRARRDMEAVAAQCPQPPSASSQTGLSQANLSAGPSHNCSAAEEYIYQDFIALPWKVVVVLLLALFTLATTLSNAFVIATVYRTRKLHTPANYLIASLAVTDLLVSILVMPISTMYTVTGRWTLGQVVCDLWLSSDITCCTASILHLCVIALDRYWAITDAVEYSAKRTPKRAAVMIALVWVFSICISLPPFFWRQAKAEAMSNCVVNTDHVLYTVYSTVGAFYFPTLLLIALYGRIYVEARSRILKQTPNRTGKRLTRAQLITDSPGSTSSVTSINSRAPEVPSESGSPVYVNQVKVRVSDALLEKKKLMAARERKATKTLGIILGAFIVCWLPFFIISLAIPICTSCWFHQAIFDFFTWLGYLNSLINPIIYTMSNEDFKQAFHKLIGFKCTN
Procedure: (§1) Binding to 5HT1D Receptors
(§2) Assays were performed essentially as described by Bruinvels et al. Varying amounts of tested drugs were added to 0.25 mL final volume reaction that included 100 μg of calf caudate nucleus membrane protein, 100 pM (Serotonin-5-0-Carboxymethyl-Glycyl[^125 I]Tyrosinamide (^125 I-GTI), 4 mM CaCl2 and 50 mM Tris HCl buffer, pH 7.4. After incubation at 37° C. for 30 minutes, samples were filtered under reduced pressure using glass fibre filters. The filters were washed with ice-cold buffer and dried. Non-specific binding was defined as that obtained in the presence of 10 μM 5HT. Trapped radioactivity was quantified using a gamma counter. Displacement curves were constructed and the concentration displacing 50% of radioligand was calculated for each tested compound using non-linear regression. Data from at least three different assays run in duplicate was averaged. (Bruinvels A. T.; Lery H.; Palacios J. M. and Hoyer D. 5-HT1D binding sites in various species: similar pharmacological profile in dog, monkey, calf, guinea-pig and human brain membranes. Naunyn-Schmiedeberg's Arch. Pharmacol. (in press)).

5HT1D receptors [2] = assay: as above; details: ratio of binding IC50 values, 3H-8-OH-DPAT over 125I-GTI
Procedure: as §1, §2

Dog saphenous vein = Dog saphenous vein isometric recording (contraction, pD2); type: cell-based, beagle dog; details: Canis lupus familiaris; isolated lateral saphenous vein rings, 37° C., in presence of 5-HT2, H1 and muscarinic antagonists; serotonin 1 μM as reference standard
Procedure: Isometric recordings were performed essentially as described by Humphrey et al (1988). Briefly, lateral saphenous vein ring preparations (3 mm. wide) removed from anaesthetized beagle dogs were suspended under 2g. resting tension, in 30 mL organ baths containing Krebs at 37° C. The experiments were carried out in the presence of 5-HT2, H1 and muscarinic antagonists and serotonin 1 μM was used as quantitative reference standard.
(Humphrey P. P. A.; Feniuk W.; Perren M. J.; Connor H. E.; Oxford A. W .; Coates I. H. and Butina D. (1988). GR 43175, a selective agonist for the 5-HT1-like receptor in dog isolated saphenous vein. Br. J. Pharmac. 94, 1123-1132).

"5-HT1 -like" receptors = details: agonistic action at "5-HT1 -like" receptors; background statement; cited from earlier work
5-HT1D receptor = details: background statement; cited from earlier work
5-HT1A receptor [3] = details: background statement; cited from earlier work
5-HT1A receptor [4] = details: attributed to affinity for 5-HT1A receptor; cited from earlier work
[5] = 5HT1A, rat hippocampus membrane, 0.5 nM 3H-8-OH-DPAT, pH 7.4, 25° C., 30 minutes, read-out: Binding IC50 3H-8-OH-DPAT
[6] = 5HT1D, calf caudate nucleus membrane, 100 pM 125I-GTI, pH 7.4, 37° C., 30 minutes, read-out: Binding IC50 125I-GTI

Compound | IC50 (5HT1A receptors; [5]) [nM] | IC50 (5HT1D receptors [1]) [nM] | 5HT1A/5HT1D (5HT1D receptors [2]) | EC50 (Dog saphenous vein) [nM] | vasoconstrictor action in the carotid vascular bed ("5-HT1 -like" receptors) | IC50 (5HT1A receptors) [nM] | IC50 (5HT1D receptors [1]; [6]) [nM] | other results
CCOC(=O)N1CCN(S(=O)(=O)Cc2ccc3[nH]cc(CCN(C)C)c3c2)CC1 [Compound 11] | 850 ± 40 | 3.2 ± 0.3 | 265.6 | 339 | – | – | – | –
NCCc1c[nH]c2ccc(O)cc12 [serotonine, 5-Hydroxytryptamine] | – | – | – | – | vasoconstrictor action in the carotid vascular bed | – | – | –
CN(C)CCc1c[nH]c2ccc(CS(=O)(=O)N3CCCCC3)cc12.Cl [Compound 2, 1-[[3-(2-dimethylaminoethyl)-5-indolyl]methanesulphonyl]piperidine hydrochloride] | – | 6.9 ± 0.4 | 49.3 | – | – | 340 ± 0.5 | – | –
CN1C[C@H](C(=O)N[C@]2(C)O[C@@]3(O)[C@@H]4CCCN4C(=O)[C@H](Cc4ccccc4)N3C2=O)C=C2c3cccc4[nH]cc(c34)C[C@H]21 [ergotamine] | – | – | – | – | vasoconstrictor action in the carotid vascular bed | – | – | –
CN(C)CCc1c[nH]c2ccc(CS(=O)(=O)N3CCCC3)cc12.Cl [Compound 1, 1-[[3-(2-dimethylaminoethyl)-5-indolyl]methanesulphonyl]-pyrrolidine hydrochloride] | 825 ± 69 | – | 77.1 | 871 | – | – | 10.7 ± 0.4 | –
CNS(=O)(=O)Cc1ccc2[nH]cc(CCN(C)C)c2c1 [Sumatriptan, reference compound] | – | – | 44.2 | 871 | – | 460 ± 67 | 10.4 ± 1 | affinity for 5-HT1D receptor (5-HT1D receptor): high affinity for 5-HT1D receptor; affinity for 5-HT1A receptor (5-HT1A receptor [3]): very important affinity for 5-HT1A receptor; hypotension and other side effects (5-HT1A receptor [4]): causes hypotension by a central nervous system action and other side effects
